Molecular target: T1, Human HPK1, catalytic domain (Homo sapiens, UniProt Q92918)
T1 construct: purchased Carna
T1 sequence (Q92918 1-346): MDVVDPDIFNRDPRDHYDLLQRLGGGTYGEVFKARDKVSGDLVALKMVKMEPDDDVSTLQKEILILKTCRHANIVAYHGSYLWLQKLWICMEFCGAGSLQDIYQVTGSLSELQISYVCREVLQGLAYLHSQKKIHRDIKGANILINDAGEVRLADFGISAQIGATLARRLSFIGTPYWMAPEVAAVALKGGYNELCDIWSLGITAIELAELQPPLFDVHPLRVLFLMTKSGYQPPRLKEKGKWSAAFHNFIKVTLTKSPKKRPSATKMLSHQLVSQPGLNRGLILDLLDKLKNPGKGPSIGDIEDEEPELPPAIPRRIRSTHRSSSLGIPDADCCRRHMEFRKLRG
Assay: HPK1-SLP76 TR-FRET assay
Format: biochemical
Details: 75 pM HPK1, 10 uM ATP, 10 nM SLP76, 30 min compound pre-incubation

Point of comparison: COc1cc(F)ccc1Nc1ncc(C(N)=O)c(Nc2cccc3c2CCNC3=O)n1 [Example 25-41, 2-[(4-fluoro-2-methoxyphenyl)amino]-4-[(1-oxo-1,2,3,4-tetrahydroisoquinolin-5-yl)amino]pyrimidine-5-carboxamide], IC50 0.733 µM. Against it:
- NC(=O)c1cnc(Nc2cccc(C3CC3)c2)nc1Nc1cccc2c1CCNC2=O [Example 25-25, 2-[(3-cyclopropylphenyl)amino]-4-[(1-oxo-1,2,3,4-tetrahydroisoquinolin-5-yl)amino]pyrimidine-5-carboxamide] — 600-fold lower, 0.00123 µM
- Cc1c(Cl)cccc1Nc1ncc(C(N)=O)c(Nc2cccc3c2CCNC3=O)n1 [Example 25-26, 2-[(3-chloro-2-methylphenyl)amino]-4-[(1-oxo-1,2,3,4-tetrahydroisoquinolin-5-yl)amino]pyrimidine-5-carboxamide] — 3.6-fold lower, 0.203 µM
- NC(=O)c1cnc(Nc2ccccc2OC(F)F)nc1Nc1cccc2c1CCNC2=O [Example 25-27, 2-{[2-(difluoromethoxy)phenyl]amino}-4-[(1-oxo-1,2,3,4-tetrahydroisoquinolin-5-yl)amino]pyrimidine-5-carboxamide] — within 1.5-fold, 0.881 µM
- CC(C)c1cccc(Nc2ncc(C(N)=O)c(Nc3cccc4c3CCNC4=O)n2)c1 [Example 25-28, 4-[(1-oxo-1,2,3,4-tetrahydroisoquinolin-5-yl)amino]-2-{[3-(propan-2-yl)phenyl]amino}pyrimidine-5-carboxamide] — 200-fold lower, 0.00372 µM
- Cc1cc(Nc2ncc(C(N)=O)c(Nc3cccc4c3CCNC4=O)n2)cc(C(F)(F)F)c1 [Example 25-29, 2-{[3-methyl-5-(trifluoromethyl)phenyl]amino}-4-[(1-oxo-1,2,3,4-tetrahydroisoquinolin-5-yl)amino]pyrimidine-5-carboxamide] — 11-fold lower, 0.0652 µM
- Cc1cc(Nc2ncc(C(N)=O)c(Nc3cccc4c3CCNC4=O)n2)ccc1F [Example 25-30, 2-[(4-fluoro-3-methylphenyl)amino]-4-[(1-oxo-1,2,3,4-tetrahydroisoquinolin-5-yl)amino]pyrimidine-5-carboxamide] — 1000-fold lower, 0.00072 µM
- NC(=O)c1cnc(Nc2cc(F)cc(F)c2)nc1Nc1cccc2c1CCNC2=O [Example 25-31, 2-[(3,5-difluorophenyl)amino]-4-[(1-oxo-1,2,3,4-tetrahydroisoquinolin-5-yl)amino]pyrimidine-5-carboxamide] — 25-fold lower, 0.0296 µM
- Cc1ccc(C(F)(F)F)cc1Nc1ncc(C(N)=O)c(Nc2cccc3c2CCNC3=O)n1 [Example 25-32, 2-{[2-methyl-5-(trifluoromethyl)phenyl]amino}-4-[(1-oxo-1,2,3,4-tetrahydroisoquinolin-5-yl)amino]pyrimidine-5-carboxamide] — 1.6-fold lower, 0.455 µM
- COc1ccc(Cl)cc1Nc1ncc(C(N)=O)c(Nc2cccc3c2CCNC3=O)n1 [Example 25-33, 2-[(5-chloro-2-methoxyphenyl)amino]-4-[(1-oxo-1,2,3,4-tetrahydroisoquinolin-5-yl)amino]pyrimidine-5-carboxamide] — 3.9-fold lower, 0.187 µM
- NC(=O)c1cnc(Nc2cccc3c2CCC3)nc1Nc1cccc2c1CCNC2=O [Example 25-34, 2-[(2,3-dihydro-1H-inden-4-yl)amino]-4-[(1-oxo-1,2,3,4-tetrahydroisoquinolin-5-yl)amino]pyrimidine-5-carboxamide] — 30-fold lower, 0.0246 µM
- CC(C)(C)c1ccc(Nc2ncc(C(N)=O)c(Nc3cccc4c3CCNC4=O)n2)cc1 [Example 25-35, 2-[(4-tert-butylphenyl)amino]-4-[(1-oxo-1,2,3,4-tetrahydroisoquinolin-5-yl)amino]pyrimidine-5-carboxamide] — 2400-fold lower, 0.0003 µM
- Cc1ccc(C)c(Nc2ncc(C(N)=O)c(Nc3cccc4c3CCNC4=O)n2)c1 [Example 25-36, 2-[(2,5-dimethylphenyl)amino]-4-[(1-oxo-1,2,3,4-tetrahydroisoquinolin-5-yl)amino]pyrimidine-5-carboxamide] — 4.3-fold lower, 0.169 µM
- NC(=O)c1cnc(Nc2ccc(F)c(C(F)(F)F)c2)nc1Nc1cccc2c1CCNC2=O [Example 25-37, 2-{[4-fluoro-3-(trifluoromethyl)phenyl]amino}-4-[(1-oxo-1,2,3,4-tetrahydroisoquinolin-5-yl)amino]pyrimidine-5-carboxamide] — 11-fold lower, 0.069 µM
- NC(=O)c1cnc(NCc2ccc(C(F)(F)F)cc2)nc1Nc1cccc2c1CCNC2=O [Example 25-38, 4-[(1-oxo-1,2,3,4-tetrahydroisoquinolin-5-yl)amino]-2-({[4-(trifluoromethyl)phenyl]methyl}amino)pyrimidine-5-carboxamide] — 1.8-fold lower, 0.404 µM
- Cc1ccc(Nc2ncc(C(N)=O)c(Nc3cccc4c3CCNC4=O)n2)c(F)c1F [Example 25-39, 2-[(2,3-difluoro-4-methylphenyl)amino]-4-[(1-oxo-1,2,3,4-tetrahydroisoquinolin-5-yl)amino]pyrimidine-5-carboxamide] — 38-fold lower, 0.0194 µM
- COc1c(F)cc(Nc2ncc(C(N)=O)c(Nc3cccc4c3CCNC4=O)n2)cc1F [Example 25-40, 2-[(3,5-difluoro-4-methoxyphenyl)amino]-4-[(1-oxo-1,2,3,4-tetrahydroisoquinolin-5-yl)amino]pyrimidine-5-carboxamide] — 19-fold lower, 0.0387 µM
- NC(=O)c1cnc(Nc2cccc(C(F)(F)F)c2F)nc1Nc1cccc2c1CCNC2=O [Example 25-42, 2-{[2-fluoro-3-(trifluoromethyl)phenyl]amino}-4-[(1-oxo-1,2,3,4-tetrahydroisoquinolin-5-yl)amino]pyrimidine-5-carboxamide] — 8.2-fold lower, 0.0899 µM
- NC(=O)c1cnc(Nc2cccc3sccc23)nc1Nc1cccc2c1CCNC2=O [Example 25-43, 2-[(1-benzothiophen-4-yl)amino]-4-[(1-oxo-1,2,3,4-tetrahydroisoquinolin-5-yl)amino]pyrimidine-5-carboxamide] — 9.4-fold lower, 0.0778 µM
- NC(=O)c1cnc(Nc2ccc(CC(F)(F)F)cc2)nc1Nc1cccc2c1CCNC2=O [Example 25-44, 4-[(1-oxo-1,2,3,4-tetrahydroisoquinolin-5-yl)amino]-2-{[4-(2,2,2-trifluoroethyl)phenyl]amino}pyrimidine-5-carboxamide] — 380-fold lower, 0.00195 µM
- COc1ncccc1Nc1ncc(C(N)=O)c(Nc2cccc3c2CCNC3=O)n1 [Example 25-45, 2-[(2-methoxypyridin-3-yl)amino]-4-[(1-oxo-1,2,3,4-tetrahydroisoquinolin-5-yl)amino]pyrimidine-S-carboxamide] — 18-fold lower, 0.0413 µM
- COc1cc2c(cc1Nc1ncc(C(N)=O)c(NC3CCCCCC3)n1)CN(C)CC2 [Example 26-1, 4-(cycloheptylamino)-2-[(6-methoxy-2-methyl-1,2,3,4-tetrahydroisoquinolin-7-yl)amino]pyrimidine-5-carboxamide] — 2800-fold lower, 0.00026 µM
- COc1cc2c(cc1Nc1ncc(C(N)=O)c(NC3CCCCC3)n1)CN(C)CC2 [Example 26-2, 4-(cyclohexylamino)-2-[(6-methoxy-2-methyl-1,2,3,4-tetrahydroisoquinolin-7-yl)amino]pyrimidine-5-carboxamide] — 1200-fold lower, 0.0006 µM
- COc1cc2c(cc1Nc1ncc(C(N)=O)c(NC3C4CC3C4)n1)CN(C)CC2 (stereo not shown) [Example 26-4, 4-[(bicyclo[1.1.1]pentan-2-yl)amino]-2-[(6-methoxy-2-methyl-1,2,3,4-tetrahydroisoquinolin-7-yl)amino]pyrimidine-5-carboxamide] — 550-fold lower, 0.00133 µM
- COc1cc2c(cc1Nc1ncc(C(N)=O)c(N[C@H]3CC[C@@H](N)CC3)n1)CN(C)CC2 [Example 26-5, 4-[(cis-4-aminocyclohexyl)amino]-2-[(6-methoxy-2-methyl-1,2,3,4-tetrahydroisoquinolin-7-yl)amino]pyrimidine-5-carboxamide] — 75-fold lower, 0.00979 µM
- COc1cc2c(cc1Nc1ncc(C(N)=O)c(N[C@H](C)C3CCCCC3)n1)CN(C)CC2 [Example 26-6, 4-{[(1R)-1-cyclohexylethyl]amino}-2-[(6-methoxy-2-methyl-1,2,3,4-tetrahydroisoquinolin-7-yl)amino]pyrimidine-5-carboxamide] — 560-fold lower, 0.00132 µM
- COc1cc2c(cc1Nc1ncc(C(N)=O)c(N[C@@H](C)C3CCCCC3)n1)CN(C)CC2 [Example 26-7, 4-{[(1S)-1-cyclohexylethyl]amino}-2-[(6-methoxy-2-methyl-1,2,3,4-tetrahydroisoquinolin-7-yl)amino]pyrimidine-5-carboxamide] — 61-fold lower, 0.012 µM
- COc1cc2c(cc1Nc1ncc(C(N)=O)c(N[C@@H]3COC[C@H]3SC)n1)CN(C)CC2 [Example 26-8, 2-[(6-methoxy-2-methyl-1,2,3,4-tetrahydroisoquinolin-7-yl)amino]-4-{[(3R,4S)-4-(methylsulfanyl)oxolan-3-yl]amino}pyrimidine-5-carboxamide] — 770-fold lower, 0.00095 µM
- COc1cc2c(cc1Nc1ncc(C(N)=O)c(NCc3cccc(F)c3F)n1)CN(C)CC2 [Example 26-9, 4-{[(2,3-difluorophenyl)methyl]amino}-2-[(6-methoxy-2-methyl-1,2,3,4-tetrahydroisoquinolin-7-yl)amino]pyrimidine-5-carboxamide] — 770-fold lower, 0.00095 µM
- COc1cc2c(cc1Nc1ncc(C(N)=O)c(NC3CC[C@H]4NCCC[C@@H]34)n1)CN(C)CC2 (stereo partly drawn) [Example 26-10, 2-[(6-methoxy-2-methyl-1,2,3,4-tetrahydroisoquinolin-7-yl)amino]-4-{[(4aR,7aR)-octahydro-1H-cyclopenta[b]pyridin-5-yl]amino}pyrimidine-5-carboxamide] — 690-fold lower, 0.00106 µM
- COc1cc2c(cc1Nc1ncc(C(N)=O)c(NC3CCN(C4CC4)C3)n1)CN(C)CC2 (stereo not shown) [Example 26-11, 4-[(1-cyclopropylpyrrolidin-3-yl)amino]-2-[(6-methoxy-2-methyl-1,2,3,4-tetrahydroisoquinolin-7-yl)amino]pyrimidine-5-carboxamide] — 28-fold lower, 0.026 µM

Source: patent publication US20230416225A1, “DIAMINOPYRIMIDINE CARBOXAMIDE INHIBITORS OF HPK1” (MERCK SHARP & DOHME LLC, priority 2020, published 2023)
